The source of these data is patent publication US10660789B2, “1,4-dihydropyridine derivatives with HSP modulating activity” (Richter Gedeon NYRT., priority 2011, dated 2020).

One series deals with other Hsps. The series can be described thus: Other in vitro HSP modulating effects (Table 3). Set-up: key: +: co-inducing activity; −: silencing activity; 0: with the experimental methods applied no other HSP modulating effects could be identified. In kind it is cell-based, mouse and human. Here is the method: (§1) The Hsp co-inducing effect of the compounds on stress response was tested on B16 mouse melanoma and SHSY5Y human neuroblastoma cell lines stably transfected with Hsp promoter probing plasmids. This kind of promoter probing, using the promoter region of a given gene conjugated with fluorescent protein is used as a best and fastest test system for finding drugs which modulate the activity of the gene followed by the given promoter (Wyshocka et al., Mol. Cel. Biochem. 215:153-156, 2000).
(§2) Reporter plasmids, containing the Hsp70 and/or Hsp25 promoter conjugated to either YFP or GFP (yellow or green fluorescent protein), were stably transfected into the cells and the expression of YFP or GFP was followed by flow cytometry. Cells were either kept at 37° C. or exposed to heat shock at 42° C. for 1 hour followed by a 16 hour recovery period at 37° C. in the presence or absence of different concentrations of the test compound. After recovery the expression of YFP or GFP which is in straight correlation with the promoter activity of Hsp70 or Hsp27 genes was followed by measuring the fluorescence intensity of the cells by flow cytometry. Fluorescence intensity is in straight correlation with the amount of fluorescent protein (GFP or YFP) produced under the control of hsp promoter. The mean fluorescence intensity of YFP or GFP produced is shown as “Hsp promoter activity”.
(§3) Cells were homogenously distributed on 6-well plates in 1×10^5 cells/well density. B16-pHsp25-GFP and B16-pHsp70-YFP melanoma cells were grown in RPMI-1640 medium supplemented with 10% Fetal bovine serum (FBS), penicillin (200 units/ml), streptomycin (200 μg/ml) and 2 mM L-Glutamine. For maintaining the SH-SY5Y-pHsp25-GFP and SH-SY5YpHsp70-YFP neuroblastoma cell lines Dulbecco's modified Eagle's medium (DMEM-F-12) containing 10% FBS, 2 mM L-Glutamine, penicillin (200 units/ml), streptomycin (200 μg/ml) and MEM non-essential amino acids were used. Before the treatments both cell lines were incubated at 37° C. in a saturated humidity atmosphere containing 95% air and 5% CO2. After 24 h incubation cells were pretreated with compounds of the invention in four different concentrations (usually in 3; 10; 20 and 50 μM) 30 min before the heat shock at 42° C. for 1 h and then incubated further at 37° C. for 16 h (recovery period). After this procedure cells were trypsinized and suspensed in 500 μl serum-free DMEM-F12 medium. The changes in cells' fluorescence were detected using BD FACSCalibur flow cytometer.
SY-SY5Y and B16 cells were extracted in NP-40 lysis buffer (PBS pH 7.4, 1% protease inhibitor coctail and 1% Triton X-100). The cell extracts were then constantly agitated at 4° C. for 2 h. The cell extracts were centrifuged at 12000×g for 30 min and supernatants were saved. After the protein concentration measurement 15 μg of total protein was separated by sodium dodecyl sulfate-polyacrylamide gel electrophoresis (SDS-PAGE) under reducing conditions according to the method of Laemmli. Proteins were blotted onto PVDF membrane. The blot was incubated overnight at 4° C. in the presence of mouse α-Hsp25, α-Hsp70, α-Hsp60 és α-Hsp90 monoclonal antibodies diluted in PBS. Then, the membrane was washed three times in PBS-0.05% Tween and incubated for 1 h in peroxidase-conjugated anti-mouse IgG antibody diluted 1:50000 in PBS containing 3% non-fat dry milk. The immune complexes were detected with chemo-luminescent substrate of peroxidase according to the supplier's instructions. Images taken from the membranes were analyzed using AlphaEase FC software.

The subject of a further series is B16 melanoma cells. In words: Experimental metastatic melanoma, B16 cells i.v. in C57Bl/6 mice. In kind it is in vivo, mouse. Here is the method:
The anticancer activity was tested in C57Bl/6 mouse (B6), the best known syngeneic mouse model of experimental metastatic melanoma. C57Bl/6 mice injected with B16 melanoma cells subcutaneously or intramuscularly develop primary tumors that, in a part of the recipients, give rise to lung metastases. When the B16 cells are injected intravenously via the tail vein, a fraction of the tumor cells homes directly in the lung, where they develop into multiple independent tumor nodules termed “experimental metastases”. Although lung tumors are the most prominent, brain, liver and kidney tumors are also detectable in intravenously injected mice. Since the behavior of the tumor-bearing mice is quite uniform, the model is suitable for simultaneous testing of high numbers of drug candidates in a limited number of experimental animals.
The in vivo tumor experiments were performed with cultured B16 cells that were previously re-isolated from lung metastatic nodules, therefore their metastatic potential was kept optimal. The tumor cells liberated from the tumor mass by trypsin digestion were expanded in cell culture and stored in aliquots in liquid nitrogen, while the number of in vitro passages was kept to a minimum. In the experiments, B6 mice were injected with 100 000 B16 melanoma cells i.v. via the tail vein. The drug candidates were dissolved in physiological saline then they were administered i.p. in a volume of 100 ul. Daily treatment of tumor bearing mice started at day 7 after the tumor injection. The body weight of the mice was measured at day 1, 7, 14 and 21. The survival of the tumor bearing mice was recorded daily. All experiments were performed in accordance with national and European animal welfare guidelines. To prevent unnecessary suffering, moribund mice were euthanized.

The subject of a further series is Hsp70 promoter. The series can be described thus: Hsp promoter probing, Hsp70 promoter-YFP reporter, flow cytometry (Table 3). The series is classed as cell-based, mouse and human. The arrangement: key: +: co-inducing activity; −: silencing activity; 0: with the experimental methods applied no other HSP modulating effects could be identified. The settings on record: heat shock 42° C. 1 h, 16 h recovery; B16 or SHSY5Y reporter cells, cell line per value not stated. Here is the method:
as §1
The Hsp encoding genes are transactivated through the binding of HSF to the heat shock element found on the DNA upstream of the Hsp genes, in the so called promoter region. In the absence of heat stress, the heat shock factors are present as monomers. Upon heat stress, however, the heat shock factors form trimers, which are the active components, able to bind to heat shock elements. Once HSF is bound to the heat shock element in the promoter of Hsp genes, the gene following the promoter region is transcriptionally active.
as §2, §3
In general terms: Flow cytometry measures light scatter and fluorescence of single cells or particles in a stream.

As to `COC(=O)C1=C(C)N(C)C(CCN(C)C)=C(C(=O)OC)C1c1ccc(C(F)(F)F)cc1.Cl` (centres unmarked) [Example 14, Dimethyl 2-(2-dimethylaminoethyl)-1,6-dimethyl-4-(4-trifluoromethylphenyl)-1,4-dihydropyridine-3,5-dicarboxylate hydrochloride], the “Other in vitro effects” value in the series on other Hsps is reported as 0. In the series with B16 melanoma cells (10 mg/kg i.p. daily from day 7 to day 29), the “Increase in life span” value is given as 18%. For the same compound, the Mean survival time with B16 melanoma cells (10 mg/kg i.p. daily from day 7 to day 29, control 25.25+/−4.13 days) was 29.91 ± 3.78 days. Besides, the “drug-related mortality and weight loss” value in the series on B16 melanoma cells (10 mg/kg i.p. daily, tumor bearing mice) was “did not produce drug-related mortality or weight loss”. The In vivo efficacy entry in the series on B16 melanoma cells (model in which efficacy was shown) is listed as “Cancer mono-”.
Usually melting point stands for the temperature of the solid-liquid transition. As to `COC(=O)C1=C(C)N(C)C(C)=C(C(=O)OC)C1c1cc(F)cc(F)c1` [Example 24, Dimethyl 4-(3,5-difluorophenyl)-1,2,6-trimethyl-1,4-dihydropyridine-3,5-dicarboxylate], the melting point was in the range of 167 to 168 °C. Also, in the series with Hsp70 promoter, the Hsp70 modulation result is “+”. Also, the “Other in vitro effects” value with other Hsps was found to be 0.
In turn, `COC(=O)C1=C(C)N(C)C(CCN(C)C)=C(C(=O)OC)C1c1cc(F)cc(F)c1.Cl` (centres unmarked) [Example 26, Dimethyl 4-(3,5-difluorophenyl)-2-(2-dimethylamino-ethyl)-1,6-dimethyl-1,4-dihydropyridine-3,5-dicarboxylate hydrochloride] gave a melting point of 201 to 203 °C. In addition, the Hsp70 modulation result in the series on Hsp70 promoter is recorded as “+”. The “Other in vitro effects” value in the series with other Hsps worked out at 0.
On the same counts, the results for `CCOC(=O)C1=C(C)N(C)C(C)=C(C(=O)OC)C1c1ccc(C(F)(F)F)cc1` (centres unmarked) [Example 32] are 146 to 149 °C, “+” and 0.
With `CCOC(=O)C1=CN(C2CC2)C=C(C(=O)OCC)C1c1ccc(C(F)(F)F)cc1` [Example 33, Diethyl 1-cyclopropyl-4-(4-trifluoromethylphenyl)-1,4-dihydro-pyridine-3,5-dicarboxylate], the melting point is 123 to 124 °C. Besides, in the series with Hsp70 promoter, the Hsp70 modulation result is “+”. Further, in the series on other Hsps, the “Other in vitro effects” value is 0.
Take `CCOC(=O)C1=CN(Cc2ccccc2)C=C(C(=O)OCC)C1c1ccc(C(F)(F)F)cc1` [Example 34]: the melting point was in the range of 107 to 108 °C. For the same compound, the Hsp70 modulation entry in the series on Hsp70 promoter is “+”. Moreover, in the series on other Hsps, the “Other in vitro effects” value turned out to be 0.
On the same counts, the results for `CCOC(=O)C1=CN(C)C=C(C(=O)OCC)C1c1ccc(C(F)(F)F)cc1` [Example 37, Diethyl 1-methyl-4-(4-trifluoromethylphenyl)-1,4-dihydropyridine-3,5-dicarboxylate] are 94 to 96 °C, “+” and 0.
On the same counts, the results for `O=C(O)C1=CN(Cc2ccccc2)C=C(C(=O)O)C1c1ccccc1` [Example 39, 1-Benzyl-4-phenyl-1,4-dihydropyridine-3,5-dicarboxylic acid] are 204 to 206 °C, “−” and 0.
In the same order, the values of `COC(=O)C1=C(C)N(C)C(CCN2CCc3ccccc3C2)=C(C(=O)OC)C1c1ccc(C(F)(F)F)cc1.O=C(O)/C=C/C(=O)O` (centres unmarked) [Example 40, Dimethyl 2-[2-(1,2,3,4-tetrahidroisoquinolin-2-yl)-ethyl]-1,6-dimethyl-4-(4-trifluoromethyl-phenyl)-1,4-dihydropyridine-3,5-dicarboxylate fumarate] are 186 to 188 °C, “+” and 0.
As to `COC(=O)C1=C(C)N(C)C(CCN2CCc3cc(OC)c(OC)cc3C2)=C(C(=O)OC)C1c1ccc(C(F)(F)F)cc1.Cl` (centres unmarked) [Example 41, Dimethyl 2-[2-(6,7-dimethoxy-1,2,3,4-tetrahydroisoquinolin-2-yl)-ethyl]-1,6-dimethyl-4-(4-trifluoromethylphenyl)-1,4-dihydropyridine-3,5-dicarboxylate hydrochloride], the melting point was in the range of 176 to 181 °C. Also, the Hsp70 modulation entry with Hsp70 promoter is “+”. Further, in the series with other Hsps, the “Other in vitro effects” value worked out at 0.
With `COC(=O)C1=C(C)N(C)C(C)=C(C(=O)OC)C1c1ccco1` [Example 44, Dimethyl 4-(furan-2-yl-1,2,6-trimethyl-1,4-dihydropyridine-3,5-dicarboxylate], the melting point lay within 142 to 143 °C. Moreover, the Hsp70 modulation entry in the series with Hsp70 promoter was “+”. Further, the “Other in vitro effects” value with other Hsps was 0.
On the same counts, the results for `COC(=O)C1=C(C)N(C)C(C)=C(C(=O)OC)C1c1ccsc1` [Example 45, Dimethyl 1,2,6-Trimethyl-4-(thiophen-3-yl)-1,4-dihydropyridine-3,5-dicarboxylate] are 187 to 189 °C, “+” and 0.
`COC(=O)C1=C(C)N(C)C(C#N)=C(C(=O)OC)C1c1ccc(C(F)(F)F)cc1` (centres unmarked) [Example 47, Dimethyl 2-cyano-1,6-dimethyl-4-(4-trifluoromethylphenyl)-1,4-dihydropyridine-3,5-dicarboxylate]: the melting point was in the range of 129 to 132 °C. The Hsp70 modulation entry with Hsp70 promoter was “+”. Besides, the “Other in vitro effects” value in the series on other Hsps is reported as 0.
